Values quoted from earlier work as cited in US12594237B2, “Mucoadhesive gel composition” (Viramal Limited, priority 2018, dated 2026).

Conditions: orally administered

## CC(=O)[C@H]1CC[C@H]2[C@@H]3CCC4=CC(=O)CC[C@]4(C)[C@H]3CC[C@]12C [progesterone]
  half-life in serum: about 5 minutes
